# From US20070148250A1, “Loading of a camptothecin drug into colloidal nanoparticles” (priority 2003, published 2007)
# Legend:
# Assay type in all cases: physicochemical
# [1] = Fraction of free (non-liposomally bound) CPT by Vivaspin 2 centrifugal filtration (MWCO 100 kDa) and UV-spectroscopy of the filtrate
# Method: For direct comparison, CPT-carboxylate loaded liposomes were made by one of the techniques as given in the literature. Liposomes, loaded with CPT-carboxylate produced by the inventive method were prepared with the same total composition. The fraction of free (non-liposomally bound) CPT was determined in both cases. The free CPT was determined by centrifugation with the centrifugal concentrator Vivaspin 2 (Vivasciences). By a membrane of MWCO 100 kDa, the molecularly dissolved solutes were separated from the colloidal particles. The concentration of CPT in the filtrate was determined by UV-spectroscopy. All measurements with camptothecin were made with tris/HCI buffer, pH 7.5, 10 mM or 20 mM.
# For the production of classically made formulations, the liposomes were formed directly in the aqueous solution of CPT carboxylate. By subsequent extrusion through membranes of 200 nm pore size homogeneous mixing and encapsulation was provided. The liposomes were made either by the ‘film method’ or by ‘ethanol injection’.
# For the film method, a solution of lipids in chloroform is evaporated in a round bottom flask. A thin dry lipid film is formed at the inner wall of the flask. For the production of empty liposomes, the film is reconstituted with water or buffer solution. For the production of CPT loaded liposomes, the film is reconstituted with the CPT-carboxylate solution. […]
# A lyophilisate of DOTAP liposomes (30 mM) was reconstituted with 2.088 ml of an aqueous solution of CPT carboxylate in water (1.4 mM). […] From the resulting preparation the fraction of free CPT was determined by centrifugation at different lipid concentrations.
# 1 ml of the DOTAP concentrate and 9 ml of CPT carboxylate solution, c=[…] were mixed. […] This preparation was diluted 1:10 1:25 and 1:50 and the fraction of free CPT was determined.
# Liquid DOTAP formulations were exposed to CPT-carboxylate solutions for different time scales. […] After the given time, the fraction of free CPT was determined for different dilutions. […]
# [2] = Stability of camptothecin carboxylate in concentrated alkaline media (HPLC)
# Method: CPT-carboxylate can be obtained quantitatively from the lactone form of CPT by incubation the latter with at least an equimolar amount or an excess of base (e.g. NaOH or NH4OH). In the most simple approach CPT lactone is stirred with 1 M NaOH or NH4OH ovenight. Higher concentrations are favourable to accelerate the process.
# Camptothecin in the lactone form was dissolved at a concentration of 4.6 μg/ml in concentrated ammonia (NH4OH) in order to obtain the carboxylate form. HPLC analysis was performed directly after dissolving the lactone and after 19 days.
# [3] = Solubility of camptothecin in buffered aqueous phase at different pH values; conditions: 50 mM buffer, pH values below 7, within few days
# Method: In this measurements, the solubility of camptothecin in aqueous media at different pH values is investigated. Pure camptothecin carboxylate was dissolved in a buffered (50 mM) aqueous phase at different pH values. At different times the solutions were centrifuged in order to remove camptothecin lactone crystals and the remaining concentration of the camptothecin in the supernatant was determined by UV-vis spectroscopy. […] These concentrations are too low for sufficient pharmaceutical efficacy.
# [4] = Loading of aminofluorescein to DOTAP/DOPC liposomes, cross-flow filtration and UV-vis; conditions: DOTAP/DOPC 1:1 liposomes, after three cycles of filtration
# Method: A 25 mM liposome formulation consisting of DOTAP/DOPC 1:1 in a solution of 5% glucose (w/v) was prepared. Briefly, a solution of DOTAP/DOPC in chloroform was put into a round bottom flask, and the solvent was evaporated in order to obtain a thin lipid film. The lipid film was reconstituted with the glucose solution to a total lipid concentration of 25 mM. The resulting multilamellar, polydisperse liposome suspension was extruded through a membrane of 200 nm pore size to obtain liposomes of uniform size.
# 10 ml of the liposome preparation and 10 ml of a 5 mM aqueous solution of aminofluorescein were combined.
# Subsequently, the molecularly dissolved components were removed by cross-flow filtration, using a VIVAFLOW filtration kit, […] and a Masterflex easy lod pump, model.
# 20 ml of the preparation were diluted with 20 ml glucose. By the subsequent dialysis, part of the solvent and the molecularly dissolved (low molecular) compound penetrated across the separation membrane, while the liposomes were retained. Filtration was performed until the volume of the original solution was reduced to half of the start volume. Then the lost volume was substituted by glucose solution and the filtration was started again. Three filtration cycles were performed.
# The concentration of aminofluorescein in the permeate and in the retained liposome suspension was determined by UV-vis spectroscopy.
compound,measurement,setting,value
"CC[C@@]1(O)C(=O)OCc2c1cc1n(c2=O)Cc2cc3ccccc3nc2-1 [Camptothecin, 20(S)-Camptothecine (1H-Pyrano[3′,4′:6,7]indolizino[1,2-b]quinoline-3,14 (4H,12H)-dione, 4-ethyl-4-hydroxy-, (S)—)]",loading of DOTAP liposomes with CPT at first time point after mixing,"[1]; DOTAP 15 mM, CPT carboxylate 0.75 mM, original concentration, Tris/HCl 10 mM pH 7.5",loading reached saturation
same,time up to which fraction of loaded drug increased,"[1]; diluted samples of DOTAP 15 mM/CPT 0.75 mM mixture, not stirred",up to 4 hours
same,degradation by the alkaline medium (HPLC),"[2]; 4.6 μg/ml in concentrated ammonia (NH4OH), after 19 days",no indication for a degradation
same,concentration of camptothecin remaining in supernatant,[3],very low values
aminofluorescein,amount retained with the liposome suspension,[4]; 5% glucose,47 % of the original concentration
same,retained amount relative to expected value without any retention,[4],four times as high
CCC(O)(C(=O)O)c1cc2n(c(=O)c1CO)Cc1cc3ccccc3nc1-2 (centres unmarked) [camptothecin carboxylate],loading efficacy in DOTAP/DOPC liposomes,"[1]; 30-100% DOTAP, total lipid 15 mM, CPT 0.75 mM, additional presence of DOPC",only slightly reduced
same,chemical degradation,[2],no indication for chemical degradation
